Laboratory results published in US20180272034A1, “USE OF CSA COMPOUNDS TO PREVENT MICROBIAL BUILD-UP OR FOULING OF MEDICAL IMPLANTS” (BRIGHAM YOUNG UNIVERSITY, priority 2017, published 2018).

Experiments:
Pseudomonas aeruginosa [1] = details: mixed-species biofilms grown 22 hours, 20 hours of treatment
Method: (§1) Several CSA compounds were tested against Pseudomonas aeruginosa and Staphylococcus aureus mixed-species biofilms grown for an initial 22 hours and subjected to 20 hours of treatment.

Staphylococcus aureus = details: mixed-species biofilms grown 22 hours, 20 hours of treatment
Method: as §1

Non-fermenters = assay: Broth microdilution MIC, HABP/VABP clinical isolates; type: cell-based, A. baumannii species complex, P. aeruginosa, S. maltophilia; details: Non-fermenters (22)
Method: CSA-131 was tested in vitro against a set of clinical isolates representing bacterial species commonly associated with hospital-acquired bacterial pneumonia (HABP) or ventilator-associated bacterial pneumonia (VABP). Antimicrobial susceptibility testing for 74 clinical isolates was performed. Broth microdilution using frozen-form MIC panels consisted of three media types: cation-adjusted Mueller-Hinton broth (CA-HMB), CA-HMB supplemented with 2.5-5% lysed horse blood for S. pneumoniae and Haemophilus test media (HTM) for Haemophilus spp.

[2] = Pre-term lambs intubated with coated endotracheal tubes, tracheal mucosal integrity; type: in vivo
Excerpt: Pre-term lambs were intubated using endotracheal tubes (ETTs) including a coating having CSA-131. Tracheal mucosal integrity of the lambs was compared to the tracheal mucosal integrity of a control group (intubated with uncoated ETTs). […] FIG. 2 illustrates the histological appearance of tracheas of the premature lambs that were intubated for three days. […] An area of denuded epithelium (arrowhead), and accumulation of white blood cells (arrow) are highlighted.

Pseudomonas aeruginosa [3] = assay: Log10 reduction, coated PVC endotracheal tube segments and media; type: cell-based; details: CSA-131 polymer coating about 39.4 μg/cm^2 vs uncoated, 24 hours
Method: (§2) Segments of polyvinyl chloride (PVC) endotracheal tubes measuring 3 cm in length were placed in wells of a 6 well plate. 7 ml of inoculum were placed in each well. Testing was repeated in triplicate for each test article. The samples were placed on a rotary shaker (110 revolutions per minute) and incubated at 37±2° C. for 24 hours. At the end of 24 hours the bacteria in the inoculum were characterized via serial dilution, plating, and counting. The endotracheal tube segment was also removed and neutralized. After neutralization, the adherent biofilm biomass was removed and characterized via serial dilution, plating, and counting.
(§3) As the number of viable organisms recovered from the treated catheters is expected to be low, a membrane filtration method provides an appropriate analysis for counting recovered organisms. The remaining recovery solution was filtered through a 0.45 μm filter membrane. Filters were placed on TSA/SDA/NA/TSBA plates and incubated at 37±2° C. and counted after sufficient incubation.
(§4) The log reduction is calculated by determining the Log10 difference between uncoated devices and associated media and coated devices (using a polymer coating including CSA-131 at about 39.4 μg/cm^2) and associated media. The log reduction is calculated as follows:
(§5) Log reduction(Media)=Control Log10(CFU/ml)−Test Log10(CFU/ml)
(§6) Log10(CFU/ml)=Log10(CFU/ml+1)
(§7) Log reduction(Device)=Control Log10(CFU/device)−Test Log10(CFU/device)
(§8) Log10(CFU/device)=Log10(CFU/device+1)

Klebsiella pneumonia = assay: as above; type: cell-based; details: CSA-131 polymer coating about 39.4 μg/cm^2 vs uncoated, 24 hours
Method: as §2, §3, §4, §5, §6, §7, §8

[4] = tested on: Staphylococcus aureus MRSA; assay: as above; type: cell-based; details: CSA-131 polymer coating about 39.4 μg/cm^2 vs uncoated, 24 hours
Method: as §2, §3, §4, §5, §6, §7, §8

[5] = Duration of efficacy of silicone-based Foley catheter with CSA-131; details: hydrogel coating approximately 10 μm including CSA-131
Excerpt: A silicone-based Foley catheter was coated with a hydrogel coating of approximately 10 μm in thickness. The coating included CSA-131. The coating was initially shown to maintain efficacy for about 6-7 days. A silicone-based Foley catheter was formed using silicone mixed with an NDSA salt form of CSA-131.

CCCCCCCCCCCCNCCC[C@@H](C)[C@H]1CC[C@H]2[C@@H]3[C@H](OCCCN)C[C@@H]4C[C@H](OCCCN)CC[C@]4(C)[C@H]3C[C@H](OCCCN)[C@]12C.Cl.Cl.Cl.Cl [CSA-131]
MBC P. aeruginosa (Pseudomonas aeruginosa [1]): 3.125 µg/mL
MIC P. aeruginosa (Pseudomonas aeruginosa [1]): 3.125 µg/mL
MBC S. aureus (Staphylococcus aureus): 1.56 µg/mL
MIC S. aureus (Staphylococcus aureus): 0.78 µg/mL
MIC50 (Non-fermenters): 4 µg/mL
MIC90 (Non-fermenters): 4 µg/mL
No. of isolates at MIC 2 μg/ml (Non-fermenters): 9
No. of isolates at MIC 4 μg/ml (Non-fermenters): 12
No. of isolates at MIC 8 μg/ml (Non-fermenters): 1
cumulative % inhibited at 2 μg/ml (Non-fermenters): 40.9%
cumulative % inhibited at 4 μg/ml (Non-fermenters): 95.5%
cumulative % inhibited at 8 μg/ml (Non-fermenters): 100%
tracheal mucosal integrity vs control group (uncoated ETTs) ([2]; pre-term lambs intubated with ETTs coated with CSA-131 coating): markedly improved mucosal integrity
histological appearance of trachea (FIG. 2, image b) ([2]; premature lambs intubated for three days, CSA-131 coated ETT): the epithelium is healthy and intact, and the subjacent connective tissue region is not inflamed
Log10 Reduction Device (Pseudomonas aeruginosa [3]; ATCC 10752 (clinical)): 7.32
Log10 Reduction Media (Pseudomonas aeruginosa [3]; ATCC 10752 (clinical)): 9.86
Log10 Reduction Total (Pseudomonas aeruginosa [3]; ATCC 10752 (clinical)): 9.58
Log10 Reduction Device (Pseudomonas aeruginosa [3]; ATCC 27853): 7.58
Log10 Reduction Media (Pseudomonas aeruginosa [3]; ATCC 27853): 9.15
Log10 Reduction Total (Pseudomonas aeruginosa [3]; ATCC 27853): 8.62
Log10 Reduction Device (Pseudomonas aeruginosa [3]; PA14 (clinical)): 5.81
Log10 Reduction Media (Pseudomonas aeruginosa [3]; PA14 (clinical)): 7.24
Log10 Reduction Total (Pseudomonas aeruginosa [3]; PA14 (clinical)): 7.00
Log10 Reduction Device (Klebsiella pneumonia; 06-0140-M4505): 5.21
Log10 Reduction Media (Klebsiella pneumonia; 06-0140-M4505): 9.49
Log10 Reduction Total (Klebsiella pneumonia; 06-0140-M4505): 7.85
Log10 Reduction Device (Klebsiella pneumonia; 4352 (clinical)): 4.91
Log10 Reduction Media (Klebsiella pneumonia; 4352 (clinical)): 6.56
Log10 Reduction Total (Klebsiella pneumonia; 4352 (clinical)): 7.70
Log10 Reduction Device (Klebsiella pneumonia; ATCC 29011): 3.80
Log10 Reduction Media (Klebsiella pneumonia; ATCC 29011): 6.76
Log10 Reduction Total (Klebsiella pneumonia; ATCC 29011): 6.82
Log10 Reduction Device ([4]; 399 (clinical)): 6.24
Log10 Reduction Media ([4]; 399 (clinical)): 8.89
Log10 Reduction Total ([4]; 399 (clinical)): 8.23
Log10 Reduction Device ([4]; 456 (clinical)): 6.77
Log10 Reduction Media ([4]; 456 (clinical)): 9.63
Log10 Reduction Total ([4]; 456 (clinical)): 9.63
Log10 Reduction Device ([4]; U of C #18 (clinical)): 5.92
Log10 Reduction Media ([4]; U of C #18 (clinical)): 9.36
Log10 Reduction Total ([4]; U of C #18 (clinical)): 8.44
time coating maintains efficacy [5]: 6 to 7 days
